Reference: PubChem BioAssay AID328 (DTP/NCI, 2004)
Where “and” joins values, the source holds several entries; their conditions need not be identical. Equal entries are not always repeated. Inconclusive results and toxic doses are left out.

Test system: BDF1 mice, P388 leukemia ip, median survival T/C
Experiment: NCI In Vivo Anticancer Drug Screen. Data for tumor model P388 Leukemia (intraperitoneal) in B6D2F1 (BDF1) mice
Conditions: endpoint: median survival time, higher = longer survival
In short: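 Each value expresses how treatment altered survival: treated-mouse outcome over vehicle-mouse outcome, both groups bearing the transplanted tumour.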

[1] = dose: 25.0 mg/kg/injection, schedule: Q01DX009 (ip), vehicle: saline
[2] = dose: 50.0 mg/kg/injection, schedule: Q01DX009 (ip), vehicle: saline
[3] = dose: 100.0 mg/kg/injection, schedule: Q04DX003 (ip), vehicle: saline sonified
[4] = dose: 50.0 mg/kg/injection, schedule: Q01DX009 (ip), vehicle: saline with Tween-80
[5] = dose: 100.0 mg/kg/injection, schedule: Q01DX009 (ip), vehicle: saline with Tween-80
[6] = dose: 100.0 mg/kg/injection, schedule: Q04DX003 (ip), vehicle: saline with Tween-80
[7] = dose: 100.0 mg/kg/injection, schedule: Q04DX003 (ip), vehicle: Klucel (hydroxypropylcellulose) (HPC)
[8] = dose: 200.0 mg/kg/injection, schedule: Q04DX003 (ip), vehicle: Klucel (hydroxypropylcellulose) (HPC)
[9] = dose: 200.0 mg/kg/injection, schedule: Q04DX003 (ip), vehicle: saline sonified
[10] = dose: 12.5 mg/kg/injection, schedule: Q04DX003 (ip), vehicle: saline with Tween-80
[11] = dose: 25.0 mg/kg/injection, schedule: Q04DX003 (ip), vehicle: saline with Tween-80
[12] = dose: 25.0 mg/kg/injection, schedule: Q01DX009 (ip), vehicle: saline with Tween-80
[13] = dose: 50.0 mg/kg/injection, schedule: Q04DX003 (ip), vehicle: saline with Tween-80

COc1cccc2c1C(=O)c1c(O)c3c(c(O)c1C2=O)C[C@@](O)(C(C)=O)C[C@@H]3OC1CC(NC(C)=O)C(O)C(C)O1 (stereo not given in full)
T/C (dose: 0.73 mg/kg/injection, schedule: Q01DX009 (ip), vehicle: saline): 112 % of control | T/C (dose: 1.1 mg/kg/injection, schedule: Q01DX009 (ip), vehicle: saline): 175 % of control | T/C (dose: 1.25 mg/kg/injection, schedule: Q04DX003 (ip), vehicle: saline): 109 % of control | T/C (dose: 1.65 mg/kg/injection, schedule: Q01DX009 (ip), vehicle: saline): 183 % of control | T/C (dose: 2.5 mg/kg/injection, schedule: Q01DX009 (ip), vehicle: saline): 187 % of control | T/C (dose: 10.0 mg/kg/injection, schedule: Q04DX003 (ip), vehicle: saline): 172 % of control | T/C (dose: 12.5 mg/kg/injection, schedule: Q01DX009 (ip), vehicle: saline): 240 % of control and 191 % of control | T/C (dose: 12.5 mg/kg/injection, schedule: Q01DX009 (ip), vehicle: water): 169 % of control | T/C [1]: 150 % of control | T/C (dose: 25.0 mg/kg/injection, schedule: Q01DX009 (ip), vehicle: water): 192 % of control | T/C (dose: 44.0 mg/kg/injection, schedule: Q04DX003 (ip), vehicle: saline sonified): 180 % of control | T/C (dose: 44.0 mg/kg/injection, schedule: Q04DX003 (ip), vehicle: saline): 159 % of control | T/C [2]: 227 % of control | T/C (dose: 50.0 mg/kg/injection, schedule: Q01DX009 (ip), vehicle: water): 204 % of control | T/C (dose: 66.0 mg/kg/injection, schedule: Q04DX003 (ip), vehicle: saline sonified): 175 % of control | T/C (dose: 66.0 mg/kg/injection, schedule: Q04DX003 (ip), vehicle: saline): 181 % of control | T/C (dose: 100.0 mg/kg/injection, schedule: Q01DX009 (ip), vehicle: water): 114 % of control | T/C [3]: 205 % of control | T/C (dose: 100.0 mg/kg/injection, schedule: Q04DX003 (ip), vehicle: saline): 195 % of control | T/C (dose: 150.0 mg/kg/injection, schedule: Q04DX003 (ip), vehicle: saline sonified): 180 % of control | T/C (dose: 150.0 mg/kg/injection, schedule: Q04DX003 (ip), vehicle: saline): 168 % of control

CCN(/C=C/C=C(C#N)C#N)CC
T/C [4]: 109 % of control | T/C [5]: 88 % of control

Cc1cc(Cl)ccc1NS(=O)(=O)c1ccc(Br)cc1
T/C [6]: 90 % of control | T/C (dose: 200.0 mg/kg/injection, schedule: Q04DX003 (ip), vehicle: saline with Tween-80): 90 % of control | T/C (dose: 400.0 mg/kg/injection, schedule: Q04DX003 (ip), vehicle: saline with Tween-80): 95 % of control

NC(=O)C1=C(O)C(=O)NC1=O
T/C (dose: 50.0 mg/kg/injection, schedule: Q04DX003 (ip), vehicle: Klucel (hydroxypropylcellulose) (HPC)): 100 % of control | T/C [7]: 109 % of control | T/C [8]: 95 % of control

CC[C@@]1(O)C[C@H](OC2CC(N(C)C)C(OC3CC(O)C(OC4CCC(=O)C(C)O4)C(C)O3)C(C)O2)c2c(cc3c(c2O)C(=O)c2c(O)cccc2C3=O)[C@H]1C(=O)OC (stereo not given in full)
T/C (dose: 0.25 mg/kg/injection, schedule: Q01DX009 (ip), vehicle: water): 100 % of control | T/C (dose: 0.5 mg/kg/injection, schedule: Q01DX009 (ip), vehicle: saline): 116 % of control | T/C (dose: 2.0 mg/kg/injection, schedule: Q01DX009 (ip), vehicle: water): 154 % of control | T/C (dose: 3.24 mg/kg/injection, schedule: Q04DX003 (ip), vehicle: water): 169 % of control | T/C (dose: 4.0 mg/kg/injection, schedule: Q01DX009 (ip), vehicle: saline): 166 % of control | T/C (dose: 4.0 mg/kg/injection, schedule: Q01DX009 (ip), vehicle: water): 194 % of control | T/C (dose: 4.7 mg/kg/injection, schedule: Q04DX003 (ip), vehicle: water): 116 % of control | T/C (dose: 5.4 mg/kg/injection, schedule: Q04DX003 (ip), vehicle: water): 197 % of control | T/C (dose: 8.0 mg/kg/injection, schedule: Q01DX009 (ip), vehicle: saline): 236 % of control | T/C (dose: 9.0 mg/kg/injection, schedule: Q04DX003 (ip), vehicle: water): 203 % of control | T/C (dose: 9.4 mg/kg/injection, schedule: Q04DX003 (ip), vehicle: water): 184 % of control

O=C(CCCl)N1CCN(C(=O)CCCl)CC1
T/C (dose: 66.0 mg/kg/injection, schedule: Q01DX009 (ip), vehicle: Klucel (hydroxypropylcellulose) (HPC)): 104 % of control | T/C (dose: 100.0 mg/kg/injection, schedule: Q01DX009 (ip), vehicle: Klucel (hydroxypropylcellulose) (HPC)): 90 % of control | T/C [3]: 116 % of control | T/C (dose: 150.0 mg/kg/injection, schedule: Q01DX009 (ip), vehicle: Klucel (hydroxypropylcellulose) (HPC)): 113 % of control | T/C [9]: 108 % of control | T/C (dose: 400.0 mg/kg/injection, schedule: Q01DX009 (ip), vehicle: Klucel (hydroxypropylcellulose) (HPC)): 95 % of control | T/C (dose: 400.0 mg/kg/injection, schedule: Q04DX003 (ip), vehicle: saline sonified): 120 % of control

C=CC1CCCCC1C=C (stereo not given)
T/C [1]: 107 % of control | T/C [2]: 88 % of control

CC(=O)NC(C(=O)N/N=C(\C)c1ccccc1)C(=O)N/N=C(\C)c1ccccc1
T/C [4]: 98 % of control | T/C [5]: 101 % of control | T/C (dose: 200.0 mg/kg/injection, schedule: Q01DX009 (ip), vehicle: saline with Tween-80): 89 % of control

COc1cc(/C=C2/CCCCC2=O)ccc1O
T/C (dose: 100.0 mg/kg/injection, schedule: Q01DX001 (ip), vehicle: other): 104 % of control | T/C (dose: 200.0 mg/kg/injection, schedule: Q01DX001 (ip), vehicle: other): 95 % of control | T/C (dose: 400.0 mg/kg/injection, schedule: Q01DX001 (ip), vehicle: other): 104 % of control

Cc1ccc(OCc2c(COc3ccc(Cl)cc3)sc3ccc(Cl)cc23)cc1
T/C [10]: 95 % of control | T/C [11]: 87 % of control

CN1C(=O)NC2C(CO)OC1C2O (stereo not given)
T/C (dose: 100.0 mg/kg/injection, schedule: Q01DX001 (ip), vehicle: saline): 104 % of control | T/C (dose: 200.0 mg/kg/injection, schedule: Q01DX001 (ip), vehicle: saline): 104 % of control | T/C (dose: 400.0 mg/kg/injection, schedule: Q01DX001 (ip), vehicle: saline): 100 % of control

CN1CCCC1CCNc1nc(C(Cl)(Cl)Cl)nc2ccc(Cl)cc12 (stereo not given)
T/C [12]: 100 % of control | T/C [4]: 100 % of control | T/C [13]: 104 % of control | T/C [6]: 104 % of control

CC(CCc1cccc2ccccc12)(C(=O)O)C(=O)O
T/C [3]: 100 % of control | T/C [9]: 91 % of control

N#CC(C#N)=Cc1cccc2ccccc12
T/C [7]: 104 % of control | T/C [8]: 100 % of control | T/C (dose: 400.0 mg/kg/injection, schedule: Q04DX003 (ip), vehicle: Klucel (hydroxypropylcellulose) (HPC)): 113 % of control

CN1CCC(OC(=O)c2ccc3c(c2)OCO3)CC1
T/C [10]: 100 % of control | T/C [11]: 117 % of control | T/C [13]: 91 % of control

CC(=O)[C@H]1CC[C@H]2[C@@H]3C[C@H](C)C4=CC(=O)CC[C@]4(C)[C@@]3(F)[C@@H](O)C[C@]12C
T/C [12]: 118 % of control | T/C [4]: 109 % of control | T/C [5]: 104 % of control and 109 % of control

O=C(NC(=O)c1c(F)cccc1F)Nc1nc2cc(Cl)ccc2o1
T/C [12]: 96 % of control | T/C [4]: 96 % of control | T/C [5]: 90 % of control

CN(C)CCCN1c2ccc(O)cc2Sc2ccc(Cl)cc21
T/C (dose: 3.1 mg/kg/injection, schedule: Q01DX009 (ip), vehicle: other): 90 % of control | T/C (dose: 6.2 mg/kg/injection, schedule: Q01DX009 (ip), vehicle: other): 90 % of control | T/C (dose: 12.5 mg/kg/injection, schedule: Q01DX009 (ip), vehicle: other): 104 % of control | T/C (dose: 25.0 mg/kg/injection, schedule: Q01DX009 (ip), vehicle: other): 109 % of control | T/C [12]: 91 % of control | T/C [4]: 91 % of control | T/C [5]: 100 % of control

COC1OC(COC(C)=O)C(OC(C)=O)C(OC(C)=O)[CH]1[Hg][O]C(C)=O (stereo not given)
T/C (dose: 3.13 mg/kg/injection, schedule: Q01DX009 (ip), vehicle: saline): 95 % of control | T/C (dose: 6.25 mg/kg/injection, schedule: Q01DX009 (ip), vehicle: saline): 114 % of control

COc1ccc(OC)c(/C=N/N=C/c2cc(OC)ccc2OC)c1
T/C (dose: 100.0 mg/kg/injection, schedule: Q01DX001 (ip), vehicle: saline with Tween-80): 104 % of control | T/C (dose: 200.0 mg/kg/injection, schedule: Q01DX001 (ip), vehicle: saline with Tween-80): 100 % of control | T/C (dose: 400.0 mg/kg/injection, schedule: Q01DX001 (ip), vehicle: saline with Tween-80): 104 % of control
